Source: US5882851A, “Cytochrome P-450 monooxygenases” (Novartis Finance Corporation, priority 1993, dated 1999)

How the values were obtained:
cytochrome P450 = test: Photoreversible carbon monoxide inhibition of oxime production in tropaeolum microsomes; type: biochemical, Tropaeolum majus; details: 60 min
Description: The microsomal reaction mixture consists of 80 μl microsomes (10 mg protein per ml), 10 μl ^14 C-phenylalanine (0.5 μCi, 464 mCi/mmol, Amersham) or ^14 C-tyrosine (0.5 μCi, 450 mCi/mmol, Amersham) and 10 μl NADPH (75 mg/ml). The reaction mixtures are incubated for 1 hour at 37° C. At the end of the incubation period, the reaction mixtures are extracted with 1500 μl ethyl acetate. The ethyl acetate phase is evaporated to dryness, redissolved in a small volume and analyzed.
The microsomal reaction mixtures are incubated using different experimental conditions. The reaction mixtures are analyzed by HPLC.

[1] = molecular target: T1, P-450TYR expressed in E. coli (Sorghum bicolor, UniProt Q43135); test: Substrate binding spectra of P-450TYR expressed in E. coli
T1 construct: in which the 35 N-terminal amino acids are replaced by the nine N-terminal amino acids from bovine 17α hydroxylase; nine N-terminal amino acids from bovine 17alpha-hydroxylase (replace the 35 N-terminal residues) (N); made in house; host or cells: E. coli JM109, vector pSP19g10L
T1 sequence (Q43135 other isoform, or with tags, fused parts or gaps): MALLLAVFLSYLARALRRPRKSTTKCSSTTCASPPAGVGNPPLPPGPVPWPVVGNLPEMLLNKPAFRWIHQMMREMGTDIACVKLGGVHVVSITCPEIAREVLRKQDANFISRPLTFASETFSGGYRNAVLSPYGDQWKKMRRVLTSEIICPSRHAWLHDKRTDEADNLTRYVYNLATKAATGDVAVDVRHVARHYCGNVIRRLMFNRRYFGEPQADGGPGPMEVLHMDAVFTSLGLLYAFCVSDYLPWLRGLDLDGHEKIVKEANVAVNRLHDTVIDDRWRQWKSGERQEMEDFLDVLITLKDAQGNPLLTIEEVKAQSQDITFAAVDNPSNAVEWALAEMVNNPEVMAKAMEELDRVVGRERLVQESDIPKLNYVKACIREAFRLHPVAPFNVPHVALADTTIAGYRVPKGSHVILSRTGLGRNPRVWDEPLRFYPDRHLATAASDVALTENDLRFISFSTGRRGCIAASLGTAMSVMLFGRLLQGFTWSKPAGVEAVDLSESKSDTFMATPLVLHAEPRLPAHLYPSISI
Source text: Cytochrome P-450TYR in the oxidized state has a strong absorption peak at 420 nm, representing the low spin state of the iron of the heme group. The binding of a ligand to the heme group shifts the absorption maximum by changing the spin state of the iron. Binding of tyrosine at the catalytic site of cytochrome P-450TYR induces a change of the spin state of the oxidized iron from low to high spin, and thereby changes the absorption maximum from 420 nm to 390 nm producing a type I spectrum (Jefcoate, Methods in Enzymology 52:258-279, 1978). The following experimental procedure is used to obtain the substrate binding spectrum: two identical cuvettes containing a buffered solution of the isolated cytochrome P-450 are prepared. The substrate of the enzyme is added to the sample cuvette whereas the same volume of buffer is added to the other cuvette. The difference spectrum is then recorded in an SLM-Aminco DW2c spectrophotometer. The absorption difference, A390-420, is proportional to the concentration of cytochrome P-450TYR with a bound substrate at its active site. If a saturating concentration of substrate is added to the sample cuvette, the absorption difference is proportional to the concentration of the substrate specific cytochrome P-450 in the cuvettes. The saturating concentration of the substrate is determined by titrating the cytochrome P-450 sample with increasing amounts of substrate and monitoring A390-420.
A modified cytocrome P-450TYR, in which the 35 N-terminal amino acids are replaced by the nine N-terminal amino acids from bovine 17α hydroxylase is introduced into the expression vector pSP19g10L which can be obtained from Dr. Henry Barnes (La Jolla, Calif.). This plasmid contains the lac Z promoter fused with the known short leader sequence (g10L) of gene 10 from bacteriophage T7 (Olin et al, 1988). A construct containing the N-terminal amino acids from bovine 17α hydroxylase and a truncated form of the P-450TYR gene is designed using PCR mutagenesis: Oligonucleotide TYROL 1d (5'-CGGGATCCATATGGCTCTGTTATTAGCAGTTTTTCTGTCGTACCTGGCCCG-3'; SEQ ID NO 23) containing a 5' mutant cDNA sequence as well as a BamHI and NdeI restriction site is used together with oligonucleotide TYROL 3 comprising the sequence surrounding the unique BamHI restriction site downstream of the ATG start codon of the cDNA coding for P-450TYR to amplify a modified N-terminal sequence of P-450TYR. The amplification product is cut with NdeI and BamHI restriction enzymes. To introduce a HindIII site immediately downstream of the stop codon of the P-450TYR gene, oligonucleotides TYROL 2 and TYROL 4 are used in a polymerase chain reaction to obtain a C-terminal fragment of the P-450TYR gene comprising a HindIII restriction site immediately downstream of the stop codon. The amplification product is cut with PstI and HindIII restriction enzymes. The complete expression plasmid is constructed by simultaneous ligation of the N-terminal NdeI/BamHI fragment, the BamHI/PstI fragment of the P-450TYR gene and the C-terminal PstI/HindIII fragment into NdeI/HindIII cleaved pSP19g10L vector DNA. The expression vector obtained is transformed into E. coli strain JM109. Transformed E. coli produce 300 nmol to 500 nmol cytochrome P-450TYR per liter cell culture upon growth at 28° C. in the presence of 1 mM isopropyl-β-D-thiogalactopyranoside and at 125 rpm. Expression levels as high as 900 nmol per liter, equivalent to 55 mg P-450TYR per liter, have been obtained. […]

[2] = molecular target: T2, E. coli-expressed cytochrome P-450TYR (Sorghum bicolor, UniProt Q43135); test: Reconstitution with E. coli-expressed cytochrome P-450TYR and sorghum NADPH cytochrome P450 reductase; type: biochemical; details: phenylalanine as substrate
T2 construct: in which the 35 N-terminal amino acids are replaced by the nine N-terminal amino acids from bovine 17α hydroxylase; nine N-terminal amino acids from bovine 17alpha-hydroxylase (replace the 35 N-terminal residues) (N); made in house; host or cells: E. coli JM109, vector pSP19g10L
Description: (§1) 10 μl of the lipid suspension is mixed in a glass vial with 50 μl of the cytochrome P-450TYR (0-1.5 pmol) solution. […] The reaction mixture is subsequently incubated for 1 hour at 30° C. At the end of the incubation period the reaction is stopped by transferring the glass vials onto ice. Radioactively labelled intermediates formed are extracted into 50 μl ehtyl acetate, applied to a silica coated TLC plate and developed using an ethyl acetate/toluene (1:5 v/v) mixture as mobile phase. The resultant product, p-hydroxyphenylacetaldehyde oxime is visualized by autoradiography of the TLC plate. Alternatively, the intermediates are analyzed by reverse-phase HPLC coupled to a Berthold radioactiviy monitor. […] Control samples may be made by omitting either cytochrome P-450 oxidoreductase or NADPH.
(§2) Reconstitution experiments with E. cole-expressed cytochrome P-450TYR and sorghum NADPH cytochorme P450 reductase in dilaurylpohsphatidylcholine micelles is performed as described in section 5.3. above.
T2 sequence (Q43135 other isoform, or with tags, fused parts or gaps): as the sequence (Q43135 other isoform, or with tags, fused parts or gaps) above

glucosinolate production = test: Induction of glucosinolate production in Tropaeolum majus; type: in vivo; details: 10 mM phenylalanine or 2% ethanol administered to the vermiculate, 24 hours, etiolated seedlings
Description: Seeds of Tropaeolum majus L. cv Empress of India (Dansk Havefroforsyning, Kolding, DK) are allowed to imbibe and germinate in complete darkness for one week at 25° C. In vivo biosynthesis experiments are performed wherein 1 μCi of the tracer ^14 C-labelled phenylalanine is administered to excised dark-grown seedlings for 24 hours followed by boiling of the plant material in 90% methanol and analysis of the extracts by HPLC as described by Lykkesfeldt and Moller, 1993. Prior to administration of the tracer to the excised seedling or leaf, the intact plant is subjected to a potential inducer for 24 hours.

[3] = molecular target: NADPH-cytochrome P-450 oxidoreductase, purified from Sorghum bicolor (Sorghum bicolor)
[4] = molecular target: T3, E. coli-expressed cytochrome P-450TYR (Sorghum bicolor, UniProt Q43135); test: Reconstitution with E. coli-expressed cytochrome P-450TYR and sorghum NADPH cytochrome P450 reductase; type: biochemical; details: dilaurylphosphatidylcholine micelles
T3 construct: in which the 35 N-terminal amino acids are replaced by the nine N-terminal amino acids from bovine 17α hydroxylase; nine N-terminal amino acids from bovine 17alpha-hydroxylase (replace the 35 N-terminal residues) (N); made in house; host or cells: E. coli JM109, vector pSP19g10L
T3 sequence (Q43135 whole entry, looked up): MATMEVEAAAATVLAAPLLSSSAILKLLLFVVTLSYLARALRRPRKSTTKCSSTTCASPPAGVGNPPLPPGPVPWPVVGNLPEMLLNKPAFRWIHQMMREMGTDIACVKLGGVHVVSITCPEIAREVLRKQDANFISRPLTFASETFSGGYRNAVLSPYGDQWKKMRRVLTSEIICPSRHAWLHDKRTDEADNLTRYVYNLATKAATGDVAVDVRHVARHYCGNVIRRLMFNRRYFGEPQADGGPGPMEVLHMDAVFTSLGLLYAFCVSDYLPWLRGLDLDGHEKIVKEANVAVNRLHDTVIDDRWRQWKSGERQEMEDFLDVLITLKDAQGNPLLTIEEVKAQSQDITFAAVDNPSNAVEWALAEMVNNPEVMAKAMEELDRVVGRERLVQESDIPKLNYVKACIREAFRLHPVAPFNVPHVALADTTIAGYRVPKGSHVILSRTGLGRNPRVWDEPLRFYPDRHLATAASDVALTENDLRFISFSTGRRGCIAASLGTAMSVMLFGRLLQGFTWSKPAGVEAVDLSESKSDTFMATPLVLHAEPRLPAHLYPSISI
Description: as §1, §2

[5] = molecular target: NADPH-cytochrome P-450 oxidoreductase, purified from Sorghum bicolor (Sorghum bicolor); remark: listed apart in the source

[C-]#[O+] [CO/O2, carbon monoxide]
% inhibition of oxime production (cytochrome P450; with light (450 nm)): 23% | % inhibition of oxime production (cytochrome P450; without light): 65%

N[C@@H](Cc1ccccc1)C(=O)O [phenylalanine]
type of substrate binding spectrum [1]: type Ispectrum | production of the corresponding oxime [2]: do not result in the production of the corresponding oxime | increase in glucosinolate production as compared to control experiments with water (glucosinolate production): threefold increase

modified cytochrome P-450TYR in which the 35 N-terminal amino acids are replaced by the nine N-terminal amino acids from bovine 17α hydroxylase, expressed in E. coli (from UniProt P05185) (enzyme)
oxime production by the enzyme reconstituted in dilaurylphosphatidylcholine micelles (turnover rate) (nmol oxime per nmol P-450TYR per minute) [3]: 349

B1: cytochrome P-450TYR: sorghum cytochrome P-450 monooxygenase converting tyrosine to p-hydroxyphenylacetaldehyde oxime, SEQ ID NO: 2 (protein)
chain: T3 sequence (Q43135 whole entry, looked up)
Turnover rate [4]: 349 nmol oxime per nmol P-450TYR per minute

B2: cytochrome P-450TYR from Sorghum bicolor (L.) Moench (enzyme)
chain: ATMEVEAAAATVLAAPLLSSSAILKLLLFVVTLSYLARALRRPRKSTTKCSSTTCASPPAGVGNPPLPPGPVPWPVVGNLPEMLLNKPAFRWIHQMMREMGTDIACVKLGGVHVVSITCPEIAREVLRKQDANFISRPLTFASETFSGGYRNAVLSPYGDQWKKMRRVLTSEIICPSRHAWLHDKRTDEADNLTRYVYNLATKAATGDVAVDVRHVARHYCGNVIRRLMFNRRYFGEPQADGGPGPMEVLHMDAVFTSLGLLYAFCVSDYLPWLRGLDLDGHEKIVKEANVAVNRLHDTVIDDRWRQWKSGERQEMEDFLDVLITLKDAQGNPLLTIEEVKAQSQDITFAAVDNPSNAVEWALAEMVNNPEVMAKAMEELDRVVGRERLVQESDIPKLNYVKACIREAFRLHPVAPFNVPHVALADTTIAGYRVPKGSHVILSRTGLGRNPRVWDEPLRFYPDRHLATAASDVALTENDLRFISFSTGRRGCIAASLGTAMSVMLFGRLLQGFTWSKPAGVEAVDLSESKSDTFMATPLVLHAEPRLPAHLYPSISI
conversion of L-tyrosine to p-hydroxyphenyl-acetaldehyde oxime by the enzyme reconstituted in lipid micelles (turn-over number) [5]: 198 min⁻¹
